What was measured:
barnyardgrass [1] = assay: Test B flooded paddy test; type: in vivo, Echinochloa crus-galli; details: 250 g ai/ha, Flood; scale of 0 to 100 where 0 is no effect and 100 is complete control
Experimental: (§1) Plant species in the flooded paddy test selected from rice (Oryza sativa), sedge, umbrella (small-flower umbrella sedge, Cyperus difformis), ducksalad (Heteranthera limosa), and barnyardgrass (Echinochloa crus-galli) were grown to the 2-leaf stage for testing. At time of treatment, test pots were flooded to 3 cm above the soil surface, treated by application of test compounds directly to the paddy water, and then maintained at that water depth for the duration of the test. Treated plants and controls were maintained in a greenhouse for 13 to 15 days, after which time all species were compared to controls and visually evaluated. Plant response ratings, summarized in Table B, are based on a scale of 0 to 100 where 0 is no effect and 100 is complete control. A dash (-) response means no test result.

pigweed = assay: Test A pre-/postemergence herbicide test; type: in vivo, Amaranthus retroflexus; details: for Pigweed plant response rating: Preemergence, visual rating on 0 to 100 scale (0 no effect, 100 complete control)
Summary of the method: (§2)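 Formulated compound (non-phytotoxic solvent, surfactant) sprayed pre- onto soil of seeded loam/sand pots or post- onto seedlings at 1–2 leaves; ~10 d greenhouse; 0–100 visual control rating versus untreated.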

rice = assay: Test B flooded paddy test; type: in vivo, Oryza sativa; details: 250 g ai/ha, Flood; scale of 0 to 100 where 0 is no effect and 100 is complete control
Experimental: as §1

velvetleaf = assay: Test A pre-/postemergence herbicide test; type: in vivo, Abutilon theophrasti; details: for Velvetleaf plant response rating: Preemergence, visual rating on 0 to 100 scale (0 no effect, 100 complete control)
Summary of the method: as §2

corn = assay: Test A pre-/postemergence herbicide test; type: in vivo, Zea mays; details: for Corn plant response rating: Preemergence, visual rating on 0 to 100 scale (0 no effect, 100 complete control)
Summary of the method: as §2

morningglory = assay: Test A pre-/postemergence herbicide test; type: in vivo, Ipomoea spp.; details: for Morningglory plant response rating: Preemergence, visual rating on 0 to 100 scale (0 no effect, 100 complete control)
Summary of the method: as §2

ducksalad = assay: Test B flooded paddy test; type: in vivo, Heteranthera limosa; details: 250 g ai/ha, Flood; scale of 0 to 100 where 0 is no effect and 100 is complete control
Experimental: as §1

wheat = assay: Test A pre-/postemergence herbicide test; type: in vivo, Triticum aestivum; details: for Wheat plant response rating: Preemergence, visual rating on 0 to 100 scale (0 no effect, 100 complete control)
Summary of the method: as §2

sedge, umbrella = assay: Test B flooded paddy test; type: in vivo, Cyperus difformis; details: 250 g ai/ha, Flood; scale of 0 to 100 where 0 is no effect and 100 is complete control
Experimental: as §1

giant foxtail = assay: Test A pre-/postemergence herbicide test; type: in vivo, Setaria faberii; details: for Foxtail, Giant plant response rating: Preemergence, visual rating on 0 to 100 scale (0 no effect, 100 complete control)
Summary of the method: as §2

crabgrass, large = assay: Test A pre-/postemergence herbicide test; type: in vivo, Digitaria sanguinalis; details: for Crabgrass, Large plant response rating: Preemergence, visual rating on 0 to 100 scale (0 no effect, 100 complete control)
Summary of the method: as §2

barnyardgrass [2] = assay: Test A pre-/postemergence herbicide test; type: in vivo, Echinochloa crus-galli; details: for Barnyardgrass plant response rating: Preemergence, visual rating on 0 to 100 scale (0 no effect, 100 complete control)
Summary of the method: as §2

galium = assay: Test A postemergence herbicide test; type: in vivo, Galium aparine; details: 1000 g ai/ha, 0 to 100 scale (0 no effect, 100 complete control)
Summary of the method: (§3)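 Plants at the one- to two-leaf stage, 2–10 cm tall, grown in loam/sand pots, received postemergence sprays of the test chemicals. After about 10 days in the greenhouse, injury was scored visually against untreated controls on a 0–100 scale (0 none, 100 complete control).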

ragweed = assay: Test A pre-/postemergence herbicide test; type: in vivo, Ambrosia elatior; details: 1000 g ai/ha
Summary of the method: as §2

ryegrass, Italian = assay: Test A pre-/postemergence herbicide test; type: in vivo, Lolium multiflorum; details: 1000 g ai/ha
Summary of the method: as §2

kochia = assay: Test A pre-/postemergence herbicide test; type: in vivo, Kochia scoparia; details: 1000 g ai/ha
Summary of the method: as §2

blackgrass = assay: Test A postemergence herbicide test; type: in vivo, Alopecurus myosuroides; details: 1000 g ai/ha, 0 to 100 scale (0 no effect, 100 complete control)
Summary of the method: as §3

[3] = Postemergence, 125 g ai/ha, 0 to 100 scale, 0 no effect, 100 complete control
[4] = Postemergence, 500 g ai/ha, 0 to 100 scale (0 no effect, 100 complete control)
[5] = preemergence, 500 g ai/ha, 0 to 100 scale
[6] = preemergence, 500 g ai/ha, 0 to 100 scale (0 no effect, 100 complete control)
[7] = Postemergence, 1000 g ai/ha, 0 to 100 scale (0 no effect, 100 complete control)
[8] = preemergence, 1000 g ai/ha, 0 to 100 scale
[9] = Postemergence, 0 to 100 scale (0 no effect, 100 complete control)

Row | SMILES | Plant response rating, Barnyardgrass (barnyardgrass [1]) | Plant response rating, Pigweed (pigweed; [3]) | Plant response rating, Pigweed (pigweed; [4]) | Pigweed plant response rating (pigweed; 125 g ai/ha) | Plant response rating, Pigweed (pigweed; [5]) | Plant response rating, Rice (rice) | Plant response rating, Velvetleaf (velvetleaf; [3]) | Plant response rating, Velvetleaf (velvetleaf; [4]) | Velvetleaf plant response rating (velvetleaf; 125 g ai/ha) | Plant response rating, Velvetleaf (velvetleaf; [5]) | Plant response rating, Corn (corn; [3]) | Plant response rating, Corn (corn; [4]) | Corn plant response rating (corn; 125 g ai/ha) | Plant response rating, Corn (corn; [5]) | Plant response rating, Morningglory (morningglory; [3]) | Plant response rating, Morningglory (morningglory; [4]) | Morningglory plant response rating (morningglory; 125 g ai/ha) | Plant response rating, Morningglory (morningglory; [5]) | Plant response rating, Ducksalad (ducksalad) | Plant response rating, Wheat (wheat; [3]) | also measured
1 | O=C1NCC(c2ccc(Cl)c(Cl)c2)C1C(=O)Nc1ccccc1OC(F)(F)F (racemic) [Compound 32] | 0 | 0 | 0 | 0 | 0 | 0 | 0 | 0 | 0 | 0 | 0 | 0 | 0 | 0 | 0 | 0 | 0 | 0 | 50 | 0 | Plant response rating, Wheat (wheat; [4]): 0; Wheat plant response rating (wheat; 125 g ai/ha): 0; Plant response rating, Wheat (wheat; [5]): 0; Plant response rating, Sedge, Umbrella (sedge, umbrella): 0; Plant response rating, Foxtail, Giant (giant foxtail; [3]): 0; Plant response rating, Foxtail, Giant (giant foxtail; [4]): 40; Foxtail, Giant plant response rating (giant foxtail; 125 g ai/ha): 70; Plant response rating, Foxtail, Giant (giant foxtail; [5]): 80; Plant response rating, Crabgrass, Large (crabgrass, large; [3]): 0; Plant response rating, Crabgrass, Large (crabgrass, large; [4]): 30; Crabgrass, Large plant response rating (crabgrass, large; 125 g ai/ha): 80; Plant response rating, Crabgrass, Large (crabgrass, large; [5]): 80; Plant response rating, Barnyardgrass (barnyardgrass [2]; [3]): 0; Plant response rating, Barnyardgrass (barnyardgrass [2]; [4]): 0; Barnyardgrass plant response rating (barnyardgrass [2]; 125 g ai/ha): 0; Plant response rating, Barnyardgrass (barnyardgrass [2]; [6]): 0
2 | COc1cccc(C2CNC(=O)C2C(=O)Nc2ccccc2F)c1 (racemic) [Compound 36] | 0 | 0 | 0 | 0 | 0 | 0 | 0 | 0 | 0 | 0 | 0 | 0 | 0 | 0 | 0 | 0 | 0 | 0 | 60 | 0 | Plant response rating, Wheat (wheat; [4]): 0; Wheat plant response rating (wheat; 125 g ai/ha): 0; Plant response rating, Wheat (wheat; [5]): 20; Plant response rating, Sedge, Umbrella (sedge, umbrella): 40; Plant response rating, Foxtail, Giant (giant foxtail; [3]): 0; Plant response rating, Foxtail, Giant (giant foxtail; [4]): 20; Foxtail, Giant plant response rating (giant foxtail; 125 g ai/ha): 20; Plant response rating, Foxtail, Giant (giant foxtail; [5]): 70; Plant response rating, Crabgrass, Large (crabgrass, large; [3]): 0; Plant response rating, Crabgrass, Large (crabgrass, large; [4]): 20; Crabgrass, Large plant response rating (crabgrass, large; 125 g ai/ha): 20; Plant response rating, Crabgrass, Large (crabgrass, large; [5]): 80; Plant response rating, Barnyardgrass (barnyardgrass [2]; [3]): 0; Plant response rating, Barnyardgrass (barnyardgrass [2]; [4]): 80; Barnyardgrass plant response rating (barnyardgrass [2]; 125 g ai/ha): 40; Plant response rating, Barnyardgrass (barnyardgrass [2]; [6]): 80
3 | Cc1cccc(C2CNC(=O)C2C(=O)Nc2ccccc2F)c1 (racemic) [Compound 38] | 0 | 0 | 0 | 0 | 0 | 0 | 0 | 0 | 0 | 0 | 0 | 0 | 0 | 0 | 0 | 0 | 0 | 0 | 0 | 0 | Plant response rating, Wheat (wheat; [4]): 0; Wheat plant response rating (wheat; 125 g ai/ha): 0; Plant response rating, Wheat (wheat; [5]): 0; Plant response rating, Sedge, Umbrella (sedge, umbrella): 0; Plant response rating, Foxtail, Giant (giant foxtail; [3]): 0; Plant response rating, Foxtail, Giant (giant foxtail; [4]): 20; Foxtail, Giant plant response rating (giant foxtail; 125 g ai/ha): 0; Plant response rating, Foxtail, Giant (giant foxtail; [5]): 30; Plant response rating, Crabgrass, Large (crabgrass, large; [3]): 0; Plant response rating, Crabgrass, Large (crabgrass, large; [4]): 50; Crabgrass, Large plant response rating (crabgrass, large; 125 g ai/ha): 70; Plant response rating, Crabgrass, Large (crabgrass, large; [5]): 80; Plant response rating, Barnyardgrass (barnyardgrass [2]; [3]): 0; Plant response rating, Barnyardgrass (barnyardgrass [2]; [4]): 30; Barnyardgrass plant response rating (barnyardgrass [2]; 125 g ai/ha): 0; Plant response rating, Barnyardgrass (barnyardgrass [2]; [6]): 80
4 | N#Cc1cccc(C2CNC(=O)C2C(=O)Nc2ccccc2F)c1 (racemic) [Compound 72] | 0 | 0 | 0 | 0 | 0 | 0 | 0 | 0 | 0 | 0 | 0 | 0 | 0 | 0 | 0 | 10 | 0 | 0 | 60 | 0 | Plant response rating, Wheat (wheat; [4]): 0; Wheat plant response rating (wheat; 125 g ai/ha): 0; Plant response rating, Wheat (wheat; [5]): 0; Plant response rating, Sedge, Umbrella (sedge, umbrella): 0; Plant response rating, Foxtail, Giant (giant foxtail; [3]): 10; Plant response rating, Foxtail, Giant (giant foxtail; [4]): 50; Foxtail, Giant plant response rating (giant foxtail; 125 g ai/ha): 60; Plant response rating, Foxtail, Giant (giant foxtail; [5]): 80; Plant response rating, Crabgrass, Large (crabgrass, large; [3]): 30; Plant response rating, Crabgrass, Large (crabgrass, large; [4]): 70; Crabgrass, Large plant response rating (crabgrass, large; 125 g ai/ha): 80; Plant response rating, Crabgrass, Large (crabgrass, large; [5]): 90; Plant response rating, Barnyardgrass (barnyardgrass [2]; [3]): 20; Plant response rating, Barnyardgrass (barnyardgrass [2]; [4]): 60; Barnyardgrass plant response rating (barnyardgrass [2]; 125 g ai/ha): 0; Plant response rating, Barnyardgrass (barnyardgrass [2]; [6]): 50
5 | O=C1NCC(c2cccc(-c3ccccc3F)c2)C1C(=O)Nc1ccccc1C(F)(F)F (stereo not shown) [Compound 238] |  |  |  |  |  |  |  |  |  |  |  |  |  |  |  |  |  |  |  |  | Plant response rating, Galium (galium): 20; Plant response rating, Pigweed (pigweed; [7]): 0; Plant response rating, Pigweed (pigweed; [8]): 0; Plant response rating, Ragweed (ragweed; [9]): 0; Plant response rating, Ragweed (ragweed; preemergence, 0 to 100 scale): 0; Plant response rating, Corn (corn; [7]): 0; Plant response rating, Ryegrass, Italian (ryegrass, Italian; [9]): 0; Plant response rating, Ryegrass, Italian (ryegrass, Italian; preemergence, 0 to 100 scale): 0; Plant response rating, Wheat (wheat; [7]): 0; Plant response rating, Kochia (kochia; [9]): 0; Plant response rating, Kochia (kochia; preemergence, 0 to 100 scale): 0; Plant response rating, Blackgrass (blackgrass): 20; Plant response rating, Foxtail, Giant (giant foxtail; [7]): 30; Plant response rating, Foxtail, Giant (giant foxtail; [8]): 90; Plant response rating, Barnyardgrass (barnyardgrass [2]; [7]): 30; Plant response rating, Barnyardgrass (barnyardgrass [2]; preemergence, 1000 g ai/ha, 0 to 100 scale (0 no effect, 100 complete control)): 50

Source: patent publication US10294202B2, “Pyrrolidinones as herbicides” (FMC Corporation, priority 2013, dated 2019)
